How the values were obtained:
[1] = test system: HaCaT cells; assay: Phagocytosis assay using Fluosphere beads in keratinocytes; assay type: cell-based, human; details: beads 24 hours
Text: The final steps of melanognesis in the skin involve transfer of melanin contained within matgure melanosomes from melanocytes to keratinocytes. In order to model melanosome uptake by keratinocytes in the presence of CMCs, we used uptake of fluosphere latex beads (0.5 μm, carboxylate-modified, Molecular Probes, Eugene, Oreg.) by a human keratinocyte cell line (HaCaT) as a model for melanosome uptake study; this model has been previously established [Cardinali G, et al. 2005; Cardinali, G. et al. 2008] to study phagocytosis by keratinocytes. HaCaT cells were cultured in 24 well plates (3.5×10^4 cells/well) for 48 hours and then media was replaced with fresh media containing CMCs (CMC2.14 at 10 μM, CMC2.5 at 20 μM, CMC2.23 at 20 μM and CMC2.24 at 20 μM). Control wells were treated with 0.1% DMSO. After 48 hours exposure, media was removed and wells were washed with PBS and Fluosphere bead solution was suspended in complete medium by sonication for 15 minutes was then diluted in complete medium before addition to the wells ([…]) and further incubation for 24 hours. After the treatment, wells were washed in PBS and extracellular fluorescence was quenched using trypan blue (0.1% in PBS); Fluorescence intensity over the entire bottom surface of each well was measured at excitation/emission of 580/605 using the “well-scan” mode with average of 21 points/well for triplicate wells in a Gemini EM fluorescence plate reader. Controls without any beads were used as blank for background subtraction and results are reported as RFU values expressed as % relative to control.

[2] = test system: MITF; assay: MITF protein levels by cell-based ELISA in B16F10 cells; design: species or system mouse; details: 48 hours
Protocol: MITF is the master regulator of melanogenesis and a known transcription factor for tyrosinase gene. The effects of PC and CMCs on micropthalmia transcription factor (MITF) proteins levels were assayed using a cell-based ELISA (LifeSpan Biosciences, Seattle). Briefly, B16F10 cells were cultured in a 96-well plate at 1×10^4 cells/well for 24 hours and then media was replaced with fresh media containing compounds in 0.1% DMSO for further 48 hours. The cells were then fixed and subsequent steps were conducted based on manufacturer instructions. The absorbance of MITF expression levels were normalized by absorbance of crystal violet stain (0.05%) and data was reported as % of control.

[3] = DPPH antioxidant assay; details: cell-free
Text: Melanogenesis is often associated with higher oxidative stress and reactive oxygen species (ROS) generation. […] DPPH is a stable free radical which changes color from purple to yellow upon reduction by antioxidant compounds by electron donation; the color change can be measured spectrophotometrically. […] Briefly, 2,2-Diphenyl-1-picrylhydrazyl (DPPH) was freshly prepared in methanol and mixed with different concentrations of the compounds in triplicates in a 96 well plate. The Negative Control group consisted of DPPH only and Ascorbic Acid (AA) at 100 μg/ml was used as a positive control. The final DPPH concentration was 100 μM and final volume was 200 ul in the plate (20 μl samples with 180 μl of DPPH). The plate was covered and incubated for 30 minutes. Absorbance was read at 517 nm.

[4] = molecular target: T1, cellular tyrosinase in B16F10 cells (Mus musculus, UniProt P11344); assay: Intracellular tyrosinase activity in B16F10 cells; assay type: cell-based; details: B16F10 cells exposed for 48 hours; non-linear curve fitting; read-out: IC50-Cellular tyrosinase inhibition
T1 construct: endogenous in cells; host or cells: B16F10
T1 sequence (P11344 19-533): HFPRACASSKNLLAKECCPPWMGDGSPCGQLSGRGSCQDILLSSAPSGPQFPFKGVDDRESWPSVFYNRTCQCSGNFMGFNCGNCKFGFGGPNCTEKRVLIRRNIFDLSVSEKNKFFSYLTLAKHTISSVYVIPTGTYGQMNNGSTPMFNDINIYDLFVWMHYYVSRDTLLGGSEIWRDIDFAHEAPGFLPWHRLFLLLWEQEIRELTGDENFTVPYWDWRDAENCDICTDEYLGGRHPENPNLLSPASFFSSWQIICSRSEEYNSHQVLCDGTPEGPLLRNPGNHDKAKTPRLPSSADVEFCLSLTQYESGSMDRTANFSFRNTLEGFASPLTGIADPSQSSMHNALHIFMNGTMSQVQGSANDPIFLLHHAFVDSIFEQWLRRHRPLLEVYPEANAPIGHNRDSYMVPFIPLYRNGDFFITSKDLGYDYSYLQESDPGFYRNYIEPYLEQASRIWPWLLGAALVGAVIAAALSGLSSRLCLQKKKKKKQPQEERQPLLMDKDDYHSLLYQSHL
Protocol: We quantitated the cellular tyrosinase activity to delineate mechanism of melanogenesis inhibition by the compounds. Briefly, B16F10 cells were cultured in 24-well tissue culture plates at a density of 4×10^4 cells/well. After 24 hrs, media was changed and test compounds were added, and further incubated for 48 hrs. At the end of treatments, cells were trypsinized and cell pellets were washed in PBS and lysed with lysis buffer (containing 1% NP-40 to solubilize the normally membrane-bound enzyme and protease inhibitors) under ice for 20 minutes and then centrifuged to remove cellular debris. 50 μl of lysates were then aliquoted in 96-well microplate and 150 μl of 3 mM solution of freshly prepared L-DOPA in phosphate buffer, pH 6.8 was added. […] The % inhibition of tyrosinase activity was calculated by determining melanin formation rates from measurements of the linear regions of the slopes of melanin content as a function of time and comparing computed rates of melanin formation in the presence of the test compounds to those of the controls.

[5] = test system: mushroom tyrosinase; assay: Mushroom tyrosinase activity, cell-free, L-DOPA substrate; assay type: biochemical; details: all concentrations tested
Protocol: The direct effects of the compounds on tyrosinase enzyme activity were tested using mushroom tyrosinase enzyme with L-DOPA substrate. Briefly, 80 μl of all the 6 test compounds prepared at different concentrations in 50 mM sodium phosphate (pH 6.5) buffer was added to 96 wells followed by 100 μl of freshly prepared substrate solution (3 mM L-DOPA in buffer). The reaction was initiated by adding 20 μl of mushroom tyrosinase enzyme (final concentration of enzyme in wells was 3.5 μg/ml). The production of DOPAchrome was monitored by measuring the kinetics of absorbance increase at 475 nm (for 30 min every 30 seconds) at 30° C. using microplate reader (Versamax®). The slopes of the kinetic readings were calculated to determine and compare tyrosinase activity from control.

[6] = B16F10, 5 μM (printed 5 M for CMC2.23)
[7] = B16F10, 20 μM (printed 20 M for CMC2.5)

Row | SMILES | inhibition of phagocytosis of Fluosphere beads ([1]; 20 μM pretreatment 48 hours) | inhibition of MITF protein levels [2, 6] | inhibition of MITF protein levels ([2]; B16F10, 10 μM) | inhibition of MITF protein levels [2, 7] | DPPH antioxidant activity [3] | IC50 [4] | inhibition of mushroom tyrosinase activity [5] | inhibition of phagocytosis of Fluosphere beads ([1]; 10 μM pretreatment 48 hours) | inhibition of MITF protein levels ([2]; B16F10, tested concentrations 5-10 μM) | inhibition of MITF protein levels ([2]; B16F10, 25 μM)
1 | COC(=O)C(C(=O)C=Cc1ccc(O)c(OC)c1)C(=O)C=Cc1ccc(O)c(OC)c1 (stereo not shown) [CMC2.5, 4-methoxycarbonyl curcumin] | 38.4% | did not show any suppression | did not show any suppression | 35% | significant DPPH radical scavenging activity | 50.7 µM | moderate inhibition |  |  | 
2 | COC(=O)C(C(=O)/C=C/c1ccc(O)cc1)C(=O)/C=C/c1ccc(O)cc1 [CMC2.14] |  |  |  |  | did not demonstrate potent antioxidant activity | 4.69 µM | moderate inhibition | 39.6% | did not show any significant reduction | 
3 | COc1cc(/C=C/C(=O)C(C(=O)/C=C/c2ccc(O)c(OC)c2)C(=O)Nc2ccccc2)ccc1O [CMC2.23] | 37.4% | 20% |  | 40% | significant DPPH radical scavenging activity | 13 µM | moderate inhibition |  |  | 40%

— patent publication US10300000B2, “Inhibition of melanogenesis by chemically modified curcumins” (The Research Foundation for The State University of New York, priority 2016, dated 2019)
